Assay results from paper PMC8617507 (Proceedings of the National Academy of Sciences of the …, 2021).
Where “and” joins values, the source holds several entries; their conditions need not be identical. Identical values can stand only once. Like-named read-outs stand apart in the source and are kept apart here.

Legend:
[1] = system: Lung epithelial A549 cells; assay: cells; conditions: Homo sapiens
[2] = system: Lung epithelial A549 cells
[3] = system: B. subtilis PliaI-lux LiaRS bioreporter; assay: Luciferase reporter assay; type: cell-based, Bacillus subtilis; conditions: 2 µg/mL THCz-1, 128 µg/mL THCz-5, 8 µg/mL THCz-39, 4 µg/mL THCz-40
[4] = system: B. subtilis PypuA-lacZ (cell wall) bioreporter; assay: β-Galactosidase reporter assay, cell wall reporter; type: cell-based, Bacillus subtilis; conditions: 10 µg THCz-1, 20 µg THCz-40, 80 µg THCz-39, 100 µg THCz-5 spotted on agar
S. pneumoniae = assay: MIC, broth microdilution; type: cell-based, Streptococcus pneumoniae; conditions: for MIC: Streptococcus pneumoniae, S. pneumoniae T4 in supplemented C+Y medium, most abundant MIC, Table 2; for reduction in MIC in comparison to THCz-1: S. pneumoniae T4, vs. original screening hit THCz-1
B. subtilis GFP-MinD = assay: MinD delocalization studies; type: cell-based, Bacillus subtilis; conditions: within 5 min
PBP2 = assay: PBP2-catalyzed transglycosylation of lipid II in vitro; type: biochemical, S. aureus; conditions: compared to THCz-1 and THCz-40
B. subtilis 168 = assay: Bacterial cell wall integrity assay; type: cell-based, Bacillus subtilis; conditions: 30 min exposure; phase-contrast microscopy
S. pneumoniae T4 = assay: Lysis and killing kinetics; conditions: THCz-1 5.1 µg/mL, penicillin G 0.06 μg/mL, tetracycline 2 μg/mL

With c1ccc(CCOC2CCCc3c2[nH]c2ccccc32)cc1 (centres unmarked) [THCz-5] the IC50 [1] was 141 µM and 41 µg/mL, the “increase of IC50 (cytotoxicity)” value ([2]; THCz-5 vs. THCz-19) was “about sixfold” and the “induction of PliaI-lux bioluminescence (LiaRS stress response)” value [3] was “except for the inactive analog THCz-5”. The “induction of the cell wall responsive reporter strain” value [4] was “but not THCz-5”, the MIC (S. pneumoniae) was > 100 µM and > 29.1 µg/mL and the “delocalization of GFP-MinD (membrane depolarization)” value (B. subtilis GFP-MinD) was “MinD delocalization was also observed”.
For c1ccc(CCNC2CCCc3c2oc2ccc(-c4ccccc4)cc32)cc1 (centres unmarked) [THCz-6], the IC50 [1] was 134 µM and 49.3 µg/mL, the “increase of IC50 (cytotoxicity)” value ([2]; THCz-6 vs. THCz-2) was “about sevenfold” and the MIC (S. pneumoniae) was 50 µM and 18.4 µg/mL.
c1ccc(CCNC2CCCc3c2[nH]c2ccccc32)cc1 (centres unmarked) [THCz-19] was tested, and the IC50 [1] was 22.2 µM and 6.8 µg/mL and the MIC (S. pneumoniae) was 6.3 µM and 1.9 µg/mL.
For Cc1ccc2[nH]c3c(c2c1)CCCC3NCCc1ccc(O)cc1 (centres unmarked) [THCz-39], the IC50 [1] was 33.4 µM and 10.7 µg/mL, the “induction of the cell wall responsive reporter strain” value [4] was “specifically induced” and the “reduction in MIC in comparison to THCz-1” value (S. pneumoniae) was “twofold to fourfold”. For the same molecule, the MIC (S. pneumoniae) was 6.3 µM to 12.5 µM and 2 µg/mL to 4 µg/mL, the “higher concentration required for full inhibition of the PBP2-catalyzed reaction” value (PBP2) was “fourfold” and the “cell shape deformations / cell membrane blebbing” value (B. subtilis 168) was “induced characteristic cell shape deformations”.
With Cc1ccc2[nH]c3c(c2c1)CCCC3NCCc1ccc(Br)cc1 (centres unmarked) [THCz-40] the IC50 [1] was 28 µM and 10.7 µg/mL, the “induction of the cell wall responsive reporter strain” value [4] was “specifically induced” and the “reduction in MIC in comparison to THCz-1” value (S. pneumoniae) was “twofold to fourfold”. For the same molecule, the MIC (S. pneumoniae) was 6.3 µM and 2.4 µg/mL and the “cell shape deformations / cell membrane blebbing” value (B. subtilis 168) was “induced characteristic cell shape deformations”.
For CN(C)[C@@H]1C(O)=C(C(N)=O)C(=O)[C@@]2(O)C(O)=C3C(=O)c4c(O)cccc4[C@@](C)(O)[C@H]3C[C@@H]12 [Tet, tetracycline], the lysis kinetics (S. pneumoniae T4) was “growth-inhibitory phenotype without any prominent lysis”.
In the case of CN[C@H](CC(C)C)C(=O)N[C@H]1C(=O)N[C@@H](CC(N)=O)C(=O)N[C@H]2C(=O)N[C@H]3C(=O)N[C@H](C(=O)N[C@H](C(=O)O)c4cc(O)cc(O)c4-c4cc3ccc4O)[C@H](O)c3ccc(c(Cl)c3)Oc3cc2cc(c3O[C@@H]2O[C@H](CO)[C@@H](O)[C@H](O)[C@H]2O[C@H]2C[C@](C)(N)[C@H](O)[C@H](C)O2)Oc2ccc(cc2Cl)[C@H]1O [vancomycin], the “cell shape deformations / cell membrane blebbing” value (B. subtilis 168) is reported as “Membrane blebbing was also observed”.
With bacitracin the “cell shape deformations / cell membrane blebbing” value (B. subtilis 168) was “Membrane blebbing was also observed”.
In the case of “nisin (ITSISLCTPGCKTGALMGCNMKTATCHCSIHVSK; not fully specified; Lantibiotic nisin-A; UniProt P13068 24-57, looked up)”, the “cell shape deformations / cell membrane blebbing” value (B. subtilis 168) is reported as “Membrane blebbing was also observed”.
